Measurements published in patent US10597388B2, “Pyridazinone herbicides” (FMC CORPORATION, priority 2014, dated 2020).

Assays:
Assay type in all cases: in vivo
[1] = tested on: blackgrass (Alopecurus myosuroides); test: Test A greenhouse herbicide test, postemergence
How it was run: (§1)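 Greenhouse postemergence test: formulated chemicals sprayed on one- to two-leaf plants (2 to 10 cm), grown in loam soil blended with sand. Injury assessed visually about 10 d later against untreated controls, scored 0 (no effect) to 100 (complete control).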

[2] = tested on: galium (catchweed bedstraw, Galium aparine); test: Test A greenhouse herbicide test, postemergence
How it was run: as §1

[3] = tested on: ducksalad (Heteranthera limosa); test: Test B flooded paddy test; conditions: 250 g ai/ha, Flood; visual rating on scale of 0 to 100 where 0 is no effect and 100 is complete control; 13 to 15 d after treatment
Description: (§2) Plant species in the flooded paddy test selected from rice (Oryza sativa), sedge, umbrella (small-flower umbrella sedge, Cyperus difformis), ducksalad (Heteranthera limosa), and barnyardgrass (Echinochloa crus-galli) were grown to the 2-leaf stage for testing. At time of treatment, test pots were flooded to 3 cm above the soil surface, treated by application of test compounds directly to the paddy water, and then maintained at that water depth for the duration of the test. Treated plants and controls were maintained in a greenhouse for 13 to 15 d, after which time all species were compared to controls and visually evaluated. Plant response ratings, summarized in Table B, are based on a scale of 0 to 100 where 0 is no effect and 100 is complete control. A dash (-) response means no test result.

[4] = tested on: sedge, umbrella (small-flower umbrella sedge, Cyperus difformis); test: Test B flooded paddy test; conditions: 250 g ai/ha, Flood; visual rating on scale of 0 to 100 where 0 is no effect and 100 is complete control; 13 to 15 d after treatment
Description: as §2

[5] = tested on: barnyardgrass (Echinochloa crus-galli); test: Test B flooded paddy test; conditions: 250 g ai/ha, Flood; visual rating on scale of 0 to 100 where 0 is no effect and 100 is complete control; 13 to 15 d after treatment
Description: as §2

[6] = tested on: rice (Oryza sativa); test: Test B flooded paddy test; conditions: 250 g ai/ha, Flood; visual rating on scale of 0 to 100 where 0 is no effect and 100 is complete control; 13 to 15 d after treatment
Description: as §2

[7] = tested on: wheat (Triticum aestivum); test: Test A greenhouse herbicide test, pre- and postemergence; conditions: Postemergence
Source text: (§3) Seeds of plant species selected from barnyardgrass (Echinochloa crus-galli), kochia (Kochia scoparia), ragweed (common ragweed, Ambrosia elatior), ryegrass, Italian (Italian ryegrass, Lolium multiflorum), crabgrass, large (large crabgrass, Digitaria sanguinalis), foxtail, giant (giant foxtail, Setaria faberii), momingglory (Ipomoea spp.), pigweed (Amaranthus retroflexus), velvetleaf (Abutilon theophrasti), wheat (Triticum aestivum), and corn (Zea mays) were planted into a blend of loam soil and sand and treated preemergence with a directed soil spray using test chemicals formulated in a non-phytotoxic solvent mixture which included a surfactant.
(§4) At the same time, plants selected from these crop and weed species and also blackgrass (Alopecurus myosuroides), and galium (catchweed bedstraw, Galium aparine) were planted in pots containing the same blend of loam soil and sand and treated with postemergence applications of test chemicals formulated in the same manner. Plants ranged in height from 2 to 10 cm and were in the one- to two-leaf stage for the postemergence treatment. Treated plants and untreated controls were maintained in a greenhouse for approximately 10 d, after which time all treated plants were compared to untreated controls and visually evaluated for injury. Plant response ratings, summarized in Table A, are based on a 0 to 100 scale where 0 is no effect and 100 is complete control. A dash (-) response means no test result.

[8] = tested on: foxtail, giant (giant foxtail, Setaria faberii); test: as above
Source text: as §3, §4

[9] = tested on: corn (Zea mays); test: as above; conditions: Postemergence
Source text: as §3, §4

[10] = tested on: kochia (Kochia scoparia); test: as above
Source text: as §3, §4

[11] = tested on: ryegrass, Italian (Italian ryegrass, Lolium multiflorum); test: as above
Source text: as §3, §4

[12] = tested on: pigweed (Amaranthus retroflexus); test: as above
Source text: as §3, §4

[13] = tested on: ragweed (common ragweed, Ambrosia elatior); test: as above
Source text: as §3, §4

[14] = tested on: barnyardgrass (Echinochloa crus-galli); test: as above
Source text: as §3, §4

[15] = 125 g ai/ha, 0 to 100 scale, 0 no effect, 100 complete control
[16] = 500 g ai/ha, visual rating after approx. 10 d, 0 to 100 scale (0 no effect, 100 complete control)
[17] = Postemergence, 125 g ai/ha, 0 to 100 scale, 0 no effect, 100 complete control
[18] = Postemergence, 500 g ai/ha, visual rating after approx. 10 d, 0 to 100 scale (0 no effect, 100 complete control)
[19] = Preemergence, 125 g ai/ha, visual injury rating, 0 to 100 scale (0 no effect, 100 complete control), approx. 10 d
[20] = Preemergence, 500 g ai/ha, 0 to 100 scale where 0 is no effect and 100 is complete control
[21] = 125 g ai/ha, 0 to 100 scale where 0 is no effect and 100 is complete control
[22] = Postemergence, 125 g ai/ha, 0 to 100 scale where 0 is no effect and 100 is complete control
[23] = Preemergence, 125 g ai/ha, 0 to 100 scale where 0 is no effect and 100 is complete control
[24] = 500 g ai/ha, 0 to 100 scale, 0 is no effect, 100 is complete control
[25] = Postemergence, 500 g ai/ha, 0 to 100 scale, 0 is no effect, 100 is complete control
[26] = Preemergence, 500 g ai/ha, 0 to 100 scale, 0 no effect, 100 complete control

Cc1nn(C)c(=O)c(-c2ccc(Cl)c3ccccc23)c1OC(=O)C(F)(F)F [Compound 159]
Plant response rating, Blackgrass [1, 15]: 70
Plant response rating, Blackgrass [1, 16]: 70
Plant response rating, Galium [2, 15]: 100
Plant response rating, Galium [2, 16]: 100
Plant response rating, Ducksalad [3]: 0
Plant response rating, Sedge, Umbrella [4]: 50
Plant response rating, Barnyardgrass [5]: 0
Plant response rating, Rice [6]: 0
Plant response rating, Wheat [7, 15]: 0
Plant response rating, Wheat [7, 16]: 30
Plant response rating, Foxtail, Giant [8, 17]: 50
Plant response rating, Foxtail, Giant [8, 18]: 80
Plant response rating, Foxtail, Giant [8, 19]: 60
Plant response rating, Foxtail, Giant [8, 20]: 80
Plant response rating, Corn [9, 15]: 20
Plant response rating, Corn [9, 16]: 40
Plant response rating, Kochia [10, 17]: 100
Plant response rating, Kochia [10, 18]: 100
Plant response rating, Kochia [10, 19]: 100
Plant response rating, Kochia [10, 20]: 100
Plant response rating, Ryegrass, Italian [11, 17]: 100
Plant response rating, Ryegrass, Italian [11, 18]: 100
Plant response rating, Ryegrass, Italian [11, 19]: 100
Plant response rating, Ryegrass, Italian [11, 20]: 100
Plant response rating, Pigweed [12, 17]: 60
Plant response rating, Pigweed [12, 18]: 80
Plant response rating, Pigweed [12, 19]: 100
Plant response rating, Pigweed [12, 20]: 100
Plant response rating, Ragweed [13, 17]: 100
Plant response rating, Ragweed [13, 18]: 100
Plant response rating, Ragweed [13, 19]: 80
Plant response rating, Ragweed [13, 20]: 80
Plant response rating, Barnyardgrass [14, 17]: 40
Plant response rating, Barnyardgrass [14, 18]: 80
Plant response rating, Barnyardgrass [14, 19]: 50
Plant response rating, Barnyardgrass [14, 20]: 80

Cc1ccc2oc(C)c(-c3c(O)c(C(C)C)nn(C)c3=O)c2c1 [Compound 119]
Plant response rating, Blackgrass [1, 21]: 0
Plant response rating, Blackgrass [1, 16]: 0
Plant response rating, Galium [2, 21]: 0
Plant response rating, Galium [2, 16]: 0
Plant response rating, Ducksalad [3]: 0
Plant response rating, Sedge, Umbrella [4]: 0
Plant response rating, Barnyardgrass [5]: 0
Plant response rating, Rice [6]: 0
Plant response rating, Wheat [7, 21]: 0
Plant response rating, Wheat [7, 16]: 0
Plant response rating, Foxtail, Giant [8, 22]: 0
Plant response rating, Foxtail, Giant [8, 18]: 0
Foxtail, Giant plant response rating [8, 23]: 0
Plant response rating, Foxtail, Giant [8, 20]: 0
Plant response rating, Corn [9, 21]: 0
Plant response rating, Corn [9, 16]: 0
Plant response rating, Kochia [10, 22]: 0
Plant response rating, Kochia [10, 18]: 0
Kochia plant response rating [10, 23]: 0
Plant response rating, Kochia [10, 20]: 0
Plant response rating, Ryegrass, Italian [11, 22]: 0
Plant response rating, Ryegrass, Italian [11, 18]: 0
Ryegrass, Italian plant response rating [11, 23]: 0
Plant response rating, Ryegrass, Italian [11, 20]: 0
Plant response rating, Pigweed [12, 22]: 0
Plant response rating, Pigweed [12, 18]: 0
Pigweed plant response rating [12, 23]: 0
Plant response rating, Pigweed [12, 20]: 0
Plant response rating, Ragweed [13, 22]: 0
Plant response rating, Ragweed [13, 18]: 0
Ragweed plant response rating [13, 23]: 0
Plant response rating, Ragweed [13, 20]: 0
Plant response rating, Barnyardgrass [14, 22]: 0
Plant response rating, Barnyardgrass [14, 18]: 0
Barnyardgrass plant response rating [14, 23]: 0
Plant response rating, Barnyardgrass [14, 20]: 0

Cc1nn(C)c(=O)c(-c2c([N+](=O)[O-])ccc3ccccc23)c1OC(=O)C1CC1 [Compound 167]
Plant response rating, Blackgrass [1, 15]: 20
Plant response rating, Blackgrass [1, 16]: 40
Plant response rating, Galium [2, 15]: 70
Plant response rating, Galium [2, 16]: 90
Plant response rating, Ducksalad [3]: 0
Plant response rating, Sedge, Umbrella [4]: 0
Plant response rating, Barnyardgrass [5]: 0
Plant response rating, Rice [6]: 0
Plant response rating, Wheat [7, 15]: 0
Plant response rating, Wheat [7, 16]: 0
Plant response rating, Foxtail, Giant [8, 17]: 20
Plant response rating, Foxtail, Giant [8, 18]: 40
Plant response rating, Foxtail, Giant [8, 19]: 10
Plant response rating, Foxtail, Giant [8, 20]: 20
Plant response rating, Corn [9, 15]: 0
Plant response rating, Corn [9, 16]: 20
Plant response rating, Kochia [10, 17]: 50
Plant response rating, Kochia [10, 18]: 70
Plant response rating, Kochia [10, 19]: 60
Plant response rating, Kochia [10, 20]: 100
Plant response rating, Ryegrass, Italian [11, 17]: 70
Plant response rating, Ryegrass, Italian [11, 18]: 80
Plant response rating, Ryegrass, Italian [11, 19]: 80
Plant response rating, Ryegrass, Italian [11, 20]: 100
Plant response rating, Pigweed [12, 17]: 70
Plant response rating, Pigweed [12, 18]: 80
Plant response rating, Pigweed [12, 19]: 100
Plant response rating, Pigweed [12, 20]: 100
Plant response rating, Ragweed [13, 17]: 60
Plant response rating, Ragweed [13, 18]: 70
Plant response rating, Ragweed [13, 19]: 70
Plant response rating, Ragweed [13, 20]: 80
Plant response rating, Barnyardgrass [14, 17]: 20
Plant response rating, Barnyardgrass [14, 18]: 20
Plant response rating, Barnyardgrass [14, 19]: 10
Plant response rating, Barnyardgrass [14, 20]: 20

COC(=O)Oc1c(C)nn(C)c(=O)c1-c1ccc(Cl)c2ccccc12 [Compound 63]
Plant response rating, Blackgrass [1, 21]: 70
Blackgrass plant response rating [1, 24]: 80
Plant response rating, Galium [2, 21]: 100
Galium plant response rating [2, 24]: 100
Plant response rating, Ducksalad [3]: 30
Plant response rating, Sedge, Umbrella [4]: 65
Plant response rating, Barnyardgrass [5]: 0
Plant response rating, Rice [6]: 0
Plant response rating, Wheat [7, 21]: 0
Wheat plant response rating [7, 24]: 40
Plant response rating, Foxtail, Giant [8, 22]: 70
Foxtail, Giant plant response rating [8, 25]: 90
Foxtail, Giant plant response rating [8, 23]: 40
Plant response rating, Foxtail, Giant [8, 26]: 70
Plant response rating, Corn [9, 21]: 0
Corn plant response rating [9, 24]: 40
Plant response rating, Kochia [10, 22]: 100
Kochia plant response rating [10, 25]: 100
Kochia plant response rating [10, 23]: 100
Plant response rating, Kochia [10, 26]: 100
Plant response rating, Ryegrass, Italian [11, 22]: 100
Ryegrass, Italian plant response rating [11, 25]: 100
Ryegrass, Italian plant response rating [11, 23]: 100
Plant response rating, Ryegrass, Italian [11, 26]: 100
Plant response rating, Pigweed [12, 22]: 100
Pigweed plant response rating [12, 25]: 100
Pigweed plant response rating [12, 23]: 100
Plant response rating, Pigweed [12, 26]: 100
Plant response rating, Ragweed [13, 22]: 100
Ragweed plant response rating [13, 25]: 100
Ragweed plant response rating [13, 23]: 80
Plant response rating, Ragweed [13, 26]: 90
Plant response rating, Barnyardgrass [14, 22]: 60
Barnyardgrass plant response rating [14, 25]: 90
Barnyardgrass plant response rating [14, 23]: 80
Plant response rating, Barnyardgrass [14, 26]: 90
